Laboratory results as given in patent publication US6391908B1, “Oxime amide indole type sPLA2 inhibitors” (Eli Lilly and Company, priority 1998, dated 2002).

Target: T1, recombinant human secreted phospholipase A2 (Homo sapiens, UniProt P14555)
T1 sequence (P14555 21-144): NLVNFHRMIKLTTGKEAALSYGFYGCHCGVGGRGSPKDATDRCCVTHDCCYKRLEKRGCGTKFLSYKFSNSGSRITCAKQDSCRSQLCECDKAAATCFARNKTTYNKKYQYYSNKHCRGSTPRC
Assay: chromogenic assay for inhibitors of recombinant human secreted phospholipase A2
Type: biochemical
From the text: The following chromogenic assay procedure was used to identify and evaluate inhibitors of recombinant human secreted phospholipase A2. The assay described herein has been adapted for high volume screening using 96 well microtiter plates. A general description of this assay method is found in the article, “Analysis of Human Synovial Fluid Phospholipase A2 on Short Chain Phosphatidylcholine-Mixed Micelles: Development of a Spectrophotometric Assay Suitable for a Microtiterplate Reader”, by Laure J. Reynolds, Lori L. Hughes, and Edward A Dennis, Analytical Biochemistry, 204, pp. 190-197, 1992 (the disclosure of which is incorporated herein by reference): […]
A measured volume of racemic dipheptanoyl thio PC supplied in chloroform at a concentration of 100 mg/ml is taken to dryness and redissolved in 10 millimolar TRITON X-100™ nonionic detergent aqueous solution. […]
5. Read absorbance of wells at 405 nanometers with an automatic plate reader.
All compounds were tested in triplicate. […] Compounds initially found to be active were reassayed to confirm their activity and, if sufficiently active, IC50 values were determined. […] In all cases, % inhibition measured at 405 nanometers generated by enzyme reactions containing inhibitors relative to the uninhibited control reactions was determined. […] IC50 were determined by plotting log concentration versus inhibition values in the range from 10-90% inhibition.

activity in inhibiting sPLA2 (in words): highly active | IC50 (diheptanoyl thio-PC substrate, pH 7.5, 40° C. for 30 minutes, absorbance at 405 nanometers, read-out: Inhibition of human secreted PLA2 IC50 ± mean deviation (3-4 tests)): 49 nM
SMILES: CCc1c(/C(=N/O)C(N)=O)c2c(OCC(=O)O)cccc2n1Cc1ccccc1 [Example 1]
